The text below walks through data of patent publication US20040019118A1, “NMDA receptor antagonists and their use in inhibiting abnormal hyperphosphorylation of microtubule associated protein tau” (priority 2002, published 2004).

Molecules are shown by their SMILES. “Also recorded” adds a separate entry of the source.

Experiment [1] has as its system MAP2. The experiment is described as follows: Immunohistochemical staining of MAP2 in cultured hippocampal slices. Particulars: 100 nM OA 24 h, then 10 μM Memantine 24 h. Type of experiment: cell-based, rat. The method, then:
Organotypic cultures of rat hippocampal slices were prepared from 20-30 day old Wistar rats and cultured with the interface method as described previously (Stoppini, et al. 1991; Bahr, et al. 1995; Zhongrin, et al. 2000). The rats were anesthetized with ketamine (100 mg/kg body weight) and decapitated and the hippocampi were dissected out and sliced into 400 um coronal sections by a McIllwain tissue chopper. Select slices with uninterrupted bright transparent neuronal layers were plated, 1-3 slices/filter, onto Millicell CM filters (Millipore, Bedford, Mass.). For the first 2 days in vitro (DIV) cultures were maintained in 25% horse serum, 50% Basal Media-Eagle (BEM), 25% Eagle's Balanced Salt Solution (EBSS), 25 mM HEPES, 1 mM glutamine, 28 mM glucose, pH 7.2, at 32° C. in a 5% CO2 humidified atmosphere. The slice cultures were then switched to 25% horse serum, 50% BEM and EBSS modified so that the potassium concentration was 2.66 mM, for another 5 DIV. […]
After different treatments some of the hippocampal slices were fixed in periodate/lysine/paraformaldehyde solution (Mclean, et al. 1974) at 33° C. for 5 h and then kept in 1% Triton-x-100 in PBS (pH 7.4) for 72 h at room temperature to improve the penetration of the antibodies. […] Peroxidase was detected using 0.05% diaminobenzidine (DAB) and H2O2 (0.01%) for 10 min.

Experiment [2] deals with PP-1. Put plainly: PP-1 activity in extracts of treated hippocampal slice cultures. The class given is cell-based, rat. The note with it: OA up to 1 μM, up to 48 h. On the procedure:
The rats were anesthetized with ketamine (100 mg/kg body weight) and decapitated and the hippocampi were dissected out and sliced into 400 um coronal sections by a McIllwain tissue chopper. Select slices with uninterrupted bright transparent neuronal layers were plated, 1-3 slices/filter, onto Millicell CM filters (Millipore, Bedford, Mass.). […] After 7 DIV, the cultures were maintained in physiological potassium containing 5% horse serum medium at 35° C. for at least 20 days before any treatment was applied. When the slices were treated, the reagents were applied into the culture medium. At different time points, the slices collected with a brush were washed twice in homogenizing buffer (50 mM HEPES, pH 7.0, 10 mM β-merceptoethanol [BME], 1 mM EDTA, 1 mM EGTA, 0.1 mM phenylmethyl sulfonyl fluoride [PMSF], 2.0 mM benzamidine and 2.0 μg/ml each of aprotinin, leupeptin and pepstatin) and homogenized at 4° C. using a Teflon-glass homogenizer. The homogenate was then divided into two parts, one was centrifuged at 16000×g for 15 min and the supernatant was used to assay activities of PP-2A and PP-1. The rest of the homogenate was diluted 1:1 with a phosphatase inhibitor cocktail (20 mM β-glycerophosphate, 2 mM Na3VO4 and 100 mM NaF, pH 7.0) and either used for Western blots or centrifuged at 16000×g for 15 min and the resulting supernatant used to determine the kinase activities.

Experiment [3] concerns the target PP-2A (Homo sapiens, UniProt P67775). The note with it: read-out: in vitro IC50; cited from earlier work.

In general, IC50 refers to the concentration needed to halve the response being measured.

PP-2A, sequence (P67775 whole entry): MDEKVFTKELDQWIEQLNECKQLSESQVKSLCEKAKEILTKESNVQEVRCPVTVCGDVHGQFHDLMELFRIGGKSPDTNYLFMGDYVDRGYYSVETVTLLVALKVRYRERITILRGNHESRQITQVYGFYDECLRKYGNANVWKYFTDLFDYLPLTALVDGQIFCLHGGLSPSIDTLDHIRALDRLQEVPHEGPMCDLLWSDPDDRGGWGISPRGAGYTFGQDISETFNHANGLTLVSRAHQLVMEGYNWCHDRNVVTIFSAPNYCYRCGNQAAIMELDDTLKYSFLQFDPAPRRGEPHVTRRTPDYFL

`CC12CC3CC(C)(C1)CC(N)(C3)C2` [Memantine, 1-amino-3,5-dimethyl adamantane]: in experiment [1], the MAP2 immunostaining entry is “beaded accumulation of MAP2 in dendrites was reduced and overall staining was increased; also recorded: a decrease in the degeneration and restoration of the staining of the neuropil; also recorded: partially reversed”.

For `C=C1[C@@H](O)[C@@H]2O[C@]3(CC[C@H](/C=C/[C@@H](C)[C@@H]4CC(C)=C[C@@]5(O[C@H](C[C@@](C)(O)C(=O)O)CC[C@H]5O)O4)O3)CC[C@H]2O[C@@H]1[C@@H](O)C[C@H](C)[C@H]1O[C@@]2(CCCCO2)CC[C@H]1C` [OA, Okadaic Acid], the “inhibition of PP-1 activity” value in experiment [2] was “no significant changes; also recorded: no detectable inhibition”. Further, in experiment [3], the IC50 is roughly 1 nM.
